{"source": "patent US12077503B2", "about": "“Substituted cyclic amides and their use as herbicides” (FMC CORPORATION, priority 2015, dated 2024)", "type_in_all_cases": "in vivo", "key": {"[1]": {"system": "pigweed (Amaranthus retroflexus)", "experiment": "Test A preemergence", "conditions": "Amaranthus retroflexus, pre-emergence, 240 h; for pest or weed control at 125 g/ha: 125 g ai/ha; for pest or weed control at 500 g/ha: 500 g ai/ha, visual injury rating about 10 d after treatment, 0 to 100 scale (0 no effect, 100 complete control)"}, "[2]": {"system": "Galium (catchweed bedstraw, Galium aparine)", "experiment": "Test A postemergence", "conditions": "Galium, post-emergence, 240 h; for pest or weed control at 125 g/ha: 125 g ai/ha", "method_in_brief": "(§1)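 Treatment is preemergence as a directed soil spray after planting, or postemergence at the one- to two-leaf stage, with test chemical in a non-phytotoxic solvent mixture plus surfactant. Plants stay in the greenhouse about 10 d before visual injury scoring on a 0 to 100 scale versus untreated controls.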"}, "Kochia (Kochia scoparia)": {"system": "Kochia (Kochia scoparia)", "experiment": "Test A postemergence", "conditions": "Bassia scoparia, post-emergence, 240 h; for pest or weed control at 125 g/ha: 125 g ai/ha", "method_in_brief": "as §1"}, "[3]": {"system": "barnyardgrass (Echinochloa crus-galli)", "experiment": "Test A postemergence", "conditions": "Echinochloa crus-galli, post-emergence, 240 h, read-out: Plant response rating, Barnyardgrass; for pest or weed control at 125 g/ha: 125 g ai/ha, Postemergence, visual injury after approximately 10 d, 0 to 100 scale where 0 is no effect and 100 is complete control", "method_in_brief": "as §1"}, "[4]": {"system": "blackgrass (Alopecurus myosuroides)", "experiment": "Test A postemergence", "conditions": "Alopecurus myosuroides, post-emergence, 240 h, read-out: Plant response rating, Blackgrass; for pest or weed control at 125 g/ha: 125 g ai/ha, Postemergence, visual injury after approximately 10 d, 0 to 100 scale where 0 is no effect and 100 is complete control", "method_in_brief": "as §1"}, "corn (Zea mays)": {"system": "corn (Zea mays)", "experiment": "Test A postemergence", "conditions": "Zea mays, post-emergence, 240 h; for Corn plant response rating (crop injury, 0 = no effect, 100 = complete kill) at 125 g/ha: 125 g ai/ha, Postemergence, visual injury after approximately 10 d, 0 to 100 scale where 0 is no effect and 100 is complete control", "method_in_brief": "as §1"}, "[5]": {"system": "giant foxtail (Setaria faberii)", "experiment": "Test A postemergence", "conditions": "Setaria faberi, post-emergence, 240 h; for pest or weed control at 125 g/ha: 125 g ai/ha", "method_in_brief": "as §1"}, "[6]": {"system": "pigweed (Amaranthus retroflexus)", "experiment": "Test A postemergence", "conditions": "Amaranthus retroflexus, post-emergence, 240 h; for pest or weed control at 125 g/ha: 125 g ai/ha", "method_in_brief": "as §1"}, "[7]": {"system": "ragweed (common ragweed, Ambrosia elatior)", "experiment": "Test A postemergence", "conditions": "Ambrosia artemisiifolia, post-emergence, 240 h; for pest or weed control at 125 g/ha: 125 g ai/ha", "method_in_brief": "as §1"}, "[8]": {"system": "ryegrass, Italian (Italian ryegrass, Lolium multiflorum)", "experiment": "Test A postemergence", "conditions": "Lolium multiflorum, post-emergence, 240 h; for pest or weed control at 125 g/ha: 125 g ai/ha", "method_in_brief": "as §1"}, "[9]": {"system": "wheat (Triticum aestivum)", "experiment": "Test A postemergence", "conditions": "Triticum aestivum, post-emergence, 240 h; for plant injury at 125 g/ha: 125 g ai/ha", "method_in_brief": "as §1"}, "[10]": {"system": "barnyardgrass (Echinochloa crus-galli)", "experiment": "Test B flooded paddy test", "conditions": "Echinochloa crus-galli, Flood, 250 g ai/ha, read-out: Barnyardgrass plant response rating", "method_in_brief": "(§2)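 Response scored visually against untreated controls, 0 = no effect and 100 = complete control, 13–15 d after treatment in the greenhouse. Compounds added to paddy water held 3 cm above soil surface. Treatment given at 2-leaf stage.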"}, "[11]": {"system": "ducksalad (Heteranthera limosa)", "experiment": "Test B flooded paddy test", "conditions": "Heteranthera limosa, Flood, 250 g ai/ha, read-out: Ducksalad plant response rating", "method_in_brief": "as §2"}, "rice (Oryra sativa)": {"system": "rice (Oryra sativa)", "experiment": "Test B flooded paddy test", "conditions": "Oryza sativa, Flood, 250 g ai/ha, read-out: Rice plant response rating", "method_in_brief": "as §2"}, "[12]": {"system": "sedge, umbrella (small-flower umbrella sedge, Cyperus difformis)", "experiment": "Test B flooded paddy test", "conditions": "Cyperus difformis, Flood, 250 g ai/ha, read-out: Sedge, Umbrella plant response rating", "method_in_brief": "as §2"}, "[13]": {"conditions": "preemergence, read-out: Pigweed plant response rating"}, "[14]": {"conditions": "scale of 0 to 100 where 0 is no effect and 100 is complete control"}, "[15]": {"conditions": "500 g ai/ha, postemergence, visual injury, 0 to 100 scale (0 no effect, 100 complete control), approx. 10 d"}, "[16]": {"conditions": "0 to 100 scale where 0 is no effect and 100 is complete control"}}, "note": "Like-named read-outs stand apart in the source and are kept apart here."}
{"smiles": "CN1C[C@H](c2ccc(C(F)(F)F)cc2)[C@@H](C(=O)Nc2cccc(F)c2Br)C1=O", "note": "[Compound 937]", "values": [{"measurement": "pest or weed control at 125 g/ha", "setting": "[1]; preemergence, 0 to 100 scale where 0 is no effect and 100 is complete control, read-out: Pigweed plant response rating", "result": 50, "unit": "%"}, {"measurement": "pest or weed control at 500 g/ha", "setting": "[1]; [13]", "result": 80, "unit": "%"}, {"measurement": "pest or weed control at 125 g/ha", "setting": "[2]; Postemergence, visual injury after approximately 10 d, 0 to 100 scale where 0 is no effect and 100 is complete control, read-out: Plant response rating, Galium", "result": 70, "unit": "%"}, {"measurement": "pest or weed control at 125 g/ha", "setting": "Kochia (Kochia scoparia); Postemergence, visual injury after approximately 10 d, 0 to 100 scale where 0 is no effect and 100 is complete control, read-out: Plant response rating, Kochia", "result": 30, "unit": "%"}, {"measurement": "pest or weed control at 125 g/ha", "setting": "[3]", "result": 70, "unit": "%"}, {"measurement": "pest or weed control at 125 g/ha", "setting": "[4]", "result": 30, "unit": "%"}, {"measurement": "Corn plant response rating (crop injury, 0 = no effect, 100 = complete kill) at 125 g/ha", "setting": "corn (Zea mays)", "result": 20, "unit": "%"}, {"measurement": "pest or weed control at 125 g/ha", "setting": "[5]; Postemergence, visual injury after approximately 10 d, 0 to 100 scale where 0 is no effect and 100 is complete control, read-out: Plant response rating, Foxtail, Giant", "result": 90, "unit": "%"}, {"measurement": "pest or weed control at 125 g/ha", "setting": "[6]; Postemergence, visual injury after approximately 10 d, 0 to 100 scale where 0 is no effect and 100 is complete control, read-out: Plant response rating, Pigweed", "result": 60, "unit": "%"}, {"measurement": "pest or weed control at 125 g/ha", "setting": "[7]; Postemergence, visual injury after approximately 10 d, 0 to 100 scale where 0 is no effect and 100 is complete control, read-out: Plant response rating, Ragweed", "result": 20, "unit": "%"}, {"measurement": "pest or weed control at 125 g/ha", "setting": "[8]; Postemergence, visual injury after approximately 10 d, 0 to 100 scale where 0 is no effect and 100 is complete control, read-out: Plant response rating, Ryegrass, Italian", "result": 20, "unit": "%"}, {"measurement": "plant injury at 125 g/ha", "setting": "[9]; Postemergence, visual injury after approximately 10 d, 0 to 100 scale where 0 is no effect and 100 is complete control, read-out: Plant response rating, Wheat", "result": 20, "unit": "%"}, {"measurement": "pest or weed control at 250 g/ha", "setting": "[10]; [14]", "result": 0, "unit": "%"}, {"measurement": "pest or weed control at 250 g/ha", "setting": "[11]; [14]", "result": 45, "unit": "%"}, {"measurement": "pest or weed control at 250 g/ha", "setting": "rice (Oryra sativa); [14]", "result": 0, "unit": "%"}, {"measurement": "pest or weed control at 250 g/ha", "setting": "[12]; [14]", "result": 0, "unit": "%"}]}
{"smiles": "CC(C)COc1cccc([C@H]2CN(C)C(=O)[C@@H]2C(=O)Nc2ccccc2F)c1", "note": "[Compound 1028]", "values": [{"measurement": "pest or weed control at 125 g/ha", "setting": "[1]; Preemergence, visual injury rating after approximately 10 d, read-out: Pigweed plant response rating (0 to 100 scale, 0 is no effect, 100 is complete control)", "result": 0, "unit": "%"}, {"measurement": "pest or weed control at 500 g/ha", "setting": "[1]; [13]", "result": 0, "unit": "%"}, {"measurement": "pest or weed control at 125 g/ha", "setting": "[2]; postemergence, visual injury on 0 to 100 scale (0 no effect, 100 complete control), approx. 10 d, read-out: Galium plant response rating", "result": 40, "unit": "%"}, {"measurement": "pest or weed control at 500 g/ha", "setting": "[2]; 500 g ai/ha, postemergence, visual injury, 0 to 100 scale (0 no effect, 100 complete control), approx. 10 d, read-out: Plant response rating, Galium", "result": 50, "unit": "%"}, {"measurement": "pest or weed control at 125 g/ha", "setting": "Kochia (Kochia scoparia); postemergence, visual injury on 0 to 100 scale (0 no effect, 100 complete control), approx. 10 d, read-out: Kochia plant response rating", "result": 0, "unit": "%"}, {"measurement": "pest or weed control at 500 g/ha", "setting": "Kochia (Kochia scoparia); 500 g ai/ha, postemergence, visual injury, 0 to 100 scale (0 no effect, 100 complete control), approx. 10 d, read-out: Plant response rating, Kochia", "result": 0, "unit": "%"}, {"measurement": "pest or weed control at 125 g/ha", "setting": "[3]", "result": 80, "unit": "%"}, {"measurement": "pest or weed control at 500 g/ha", "setting": "[3]; [15]", "result": 90, "unit": "%"}, {"measurement": "pest or weed control at 125 g/ha", "setting": "[4]", "result": 30, "unit": "%"}, {"measurement": "pest or weed control at 500 g/ha", "setting": "[4]; [15]", "result": 40, "unit": "%"}, {"measurement": "Corn plant response rating (crop injury, 0 = no effect, 100 = complete kill) at 125 g/ha", "setting": "corn (Zea mays)", "result": 0, "unit": "%"}, {"measurement": "Corn plant response rating (crop injury, 0 = no effect, 100 = complete kill) at 500 g/ha", "setting": "corn (Zea mays); [15]", "result": 30, "unit": "%"}, {"measurement": "pest or weed control at 125 g/ha", "setting": "[5]; postemergence, visual injury on 0 to 100 scale (0 no effect, 100 complete control), approx. 10 d, read-out: Foxtail, Giant plant response rating", "result": 80, "unit": "%"}, {"measurement": "pest or weed control at 500 g/ha", "setting": "[5]; 500 g ai/ha, postemergence, visual injury, 0 to 100 scale (0 no effect, 100 complete control), approx. 10 d, read-out: Plant response rating, Foxtail, Giant", "result": 80, "unit": "%"}, {"measurement": "pest or weed control at 125 g/ha", "setting": "[6]; postemergence, visual injury on 0 to 100 scale (0 no effect, 100 complete control), approx. 10 d, read-out: Pigweed plant response rating", "result": 0, "unit": "%"}, {"measurement": "pest or weed control at 500 g/ha", "setting": "[6]; 500 g ai/ha, postemergence, visual injury, 0 to 100 scale (0 no effect, 100 complete control), approx. 10 d, read-out: Plant response rating, Pigweed", "result": 0, "unit": "%"}, {"measurement": "pest or weed control at 125 g/ha", "setting": "[7]; postemergence, visual injury on 0 to 100 scale (0 no effect, 100 complete control), approx. 10 d, read-out: Ragweed plant response rating", "result": 0, "unit": "%"}, {"measurement": "pest or weed control at 500 g/ha", "setting": "[7]; 500 g ai/ha, postemergence, visual injury, 0 to 100 scale (0 no effect, 100 complete control), approx. 10 d, read-out: Plant response rating, Ragweed", "result": 0, "unit": "%"}, {"measurement": "pest or weed control at 125 g/ha", "setting": "[8]; postemergence, visual injury on 0 to 100 scale (0 no effect, 100 complete control), approx. 10 d, read-out: Ryegrass, Italian plant response rating", "result": 0, "unit": "%"}, {"measurement": "pest or weed control at 500 g/ha", "setting": "[8]; 500 g ai/ha, postemergence, visual injury, 0 to 100 scale (0 no effect, 100 complete control), approx. 10 d, read-out: Plant response rating, Ryegrass, Italian", "result": 40, "unit": "%"}, {"measurement": "plant injury at 125 g/ha", "setting": "[9]; postemergence, visual injury on 0 to 100 scale (0 no effect, 100 complete control), approx. 10 d, read-out: Wheat plant response rating", "result": 0, "unit": "%"}, {"measurement": "plant injury at 500 g/ha", "setting": "[9]; 500 g ai/ha, postemergence, visual injury, 0 to 100 scale (0 no effect, 100 complete control), approx. 10 d, read-out: Plant response rating, Wheat", "result": 40, "unit": "%"}, {"measurement": "pest or weed control at 250 g/ha", "setting": "[10]; [16]", "result": 20, "unit": "%"}, {"measurement": "pest or weed control at 250 g/ha", "setting": "[11]; [16]", "result": 80, "unit": "%"}, {"measurement": "pest or weed control at 250 g/ha", "setting": "rice (Oryra sativa); [16]", "result": 10, "unit": "%"}, {"measurement": "pest or weed control at 250 g/ha", "setting": "[12]; [16]", "result": 0, "unit": "%"}]}
